In US6916789B2, “Peyer's patch and/or M-cell targeting ligands” (Merrion Research I Limited, priority 2001, dated 2005):
Where no end group is shown, it is not given here. [ ]: non-standard residue; d: D form.

Tests used:
Caco-2 homogenates [1] = assay: Peptide coated particles ELISA-based binding to Caco-2 homogenates; set-up: species or system human; conditions: for binding of peptide coated particles: peptide adsorbed to streptavidin particles (0.289 μm)
Description: Several phage-derived peptides (SEQ ID NOs: 25, 31, 32, 33, and 40) were adsorbed to streptavidin particles (0.289 μm). Peptide coated particles were tested in an ELISA-based assay for binding to Caco-2 homogenates. […] In addition, when one double-mutant peptide ligand (SEQ ID NO:33), is adsorbed to polystyrene particles binding that is approximately 60% of that of the parent peptide is observed (See FIGS. 19A-19B).

Caco-2 homogenates [2] = assay: Synthetic peptide ELISA-based binding to Caco-2 homogenates (streptavidin-peroxidase detection); set-up: species or system human; conditions: for binder category / binding to epithelium: ELISA, intestinal epithelial tissue, FIGS. 17A-17B Caco-2 homogenates; for Binding Assay results (Caco-2), Kd / Binding Assay results (Caco-2), category: Tables 9 and 10; for peptide binding: biotin-tagged peptides, Example 5
Description: In order to prepare the Caco-2 cell membrane and cytosolic fractions, confluent Caco-2 cell monolayers (grown in 75 cm^2 flasks for up to 1 week at 37° C. and 5% CO2) were washed twice in Dulbecco's PBS (DPBS). The cell monolayers were then treated with 10 mM EDTA-DPBS for 5-10 minutes at 37° C. and the cells were harvested by centrifugation at 1000 rpm for 5 minutes. The cells were then washed 3×in DPBS. The cell pellet was resuspended in 3 volumes of ice-cold HED buffer (20 mM HEPES (pH 7.67), 1 mM EGTA, 0,5 mM dithiothreitol, 1 mM phenylmethylsuphonyl fluoride (PMSF)) and the cells were allowed to swell for 5 minutes on ice. The cells were then homogenized for 30 seconds. The cell homogenates were then centrifuged in hard walled tubes at 40,000 rpm for 45 minutes at 4° C. (ultracentrifuge Ti90 rotor). The supernatant was removed and the pellet resuspended in HEDG buffer (20 mM HEPES (pH 7.67), 1 mM EGTA, 0.5 mM dithiothreithol, 100 mM NaCl, 10% glycerol, 1 mM PMSF). Three volumes of buffer were then added and the pellet was resuspended and centrifuged again at 1000 rpm for 2 minutes. The supernatant was removed and stored on ice. The procedure was repeated adding the second supernatant to the first and then the procedure was repeated 2-3 more times. The protein concentration was determined using the Bio-Rad protein assay. All fractions were stored at −80° C.
(§1) Peptide sequences (SEQ ID NOs: 3, 4, 5, 7, 8, 9, 10, 11, 14, 15, 16, 17, 19, 20, 26, 28, 29, 30) were synthesized with biotin tags at the amino terminal for all peptides and additionally at the carboxyl terminal for SEQ ID NOs:8 and 14. Binding of these peptides to Caco-2 homogenates and/or to rat intestinal tissue homogenates was tested in an ELISA-based assay with streptavidin-peroxidase detection. […] (See FIGS. 13A-13N).

[3] = tested on: rat intestinal tissue homogenates; assay: Synthetic peptide ELISA-based binding to rat intestinal tissue homogenates; conditions: biotin-tagged peptides; Example 5
Description: The rat tissue homogenates were prepared by harvesting rat GI and Peyer's patch and storing them on ice until needed, or 1-2 hours. The tissue was then put into homogenization buffer (250 mM Sucrose, 12 mM Tris, 16 mM EDTA) with protease inhibitor cocktail. A hand-held homogenizer was used to break up the tissue for 3-4 minutes. The contents of the homogenizer were then transferred to microfuge tubes and spun at 1500 rpm for 1 minute. The supernatant was taken off and measured for protein content using the Bio-Rad Assay. Specificity studies were then run to allow differentiation between Peyer's patch specific and non-specific binding properties. The 55 high-binding clones were assayed for binding to rat small intestinal homogenates (i.e., homogenate membrane fractions) with and without Peyer's Patch tissue (i.e., tissue homogenate membrane fractions) present. (See FIGS. 6 and 7). The negative control was M13 mp18 with no peptide insert.
as §1

[4] = tested on: intestinal tissue of different species namely dog, mouse, pig, and rat; assay: Peptide binding to intestinal tissue of different species; conditions: biotin-tagged peptides
Description: (§2) Peptide sequences (SEQ ID NOs:3, 7, 8, 9 and 14) were synthesized with biotin tags at the amino terminal for all peptides and additionally at the carboxyl terminal for SEQ ID NOs:8 and 14. Binding of these peptides to intestinal tissue of different species namely dog, mouse, pig, and rat was performed. […] (See FIGS. 14A-14H). Binding of peptides (SEQ ID NOs:8 and 14) to rat tissue from different organs, namely liver, lung, mesenteric lymph nodes, spleen and kidney, was performed. […] (See FIGS. 15A-15E).

[5] = tested on: human Peyer's patch tissue sections; assay: Biotinylated peptide binding to human Peyer's patch tissue sections (streptavidin-HRP/DAB staining); conditions: biotinylated peptide at 50 μg/ml; for binding to human Peyer's patch: 1 hour
Description: Three synthetic peptides (SEQ ID NO:8, 25 and 14) derived from isolated clones were biotinylated and tested for binding to human Peyer's patch tissue sections. In addition, a known negative binding peptide was included as a negative control. Paraffin sections of human Peyer's patch were deparaffinized and […]. The sections were rinsed in PBS. The antigenic determinants on the tissue were unmasked by microwaving in 2.1 g/L acetic acid for 5 minutes and allowed to cool at room temperature for 20 minutes while covered in plastic wrap. After 20 minutes, the sections were washed in PBS and then blocked in endogenous peroxidase in 1% hydrogen peroxide in methanol for 10 minutes. The rinse was repeated and the sections were blocked with 2% BSA in PBS for 20 minutes at room temperature. The sections were incubated with peptide at 50 μg/ml in […] in PBS for 1 hour at room temperature. Control tissue was treated with BSA alone. The sections were rinsed with 0.05% Tween in PBS. Streptavidin-HRP at 1/500 in 2% BSA was added for 30-60 minutes at room temperature. Again, the sections were rinsed with PBS/Tween. DAB substrate was added for up to 5 minutes, and the reaction was stopped by immersing the slides in water. The sections were counterstained using Haematoxlin for 50 seconds and then rinsed in water. The slides were differentiated in 1% acid alcohol for 5-10 seconds and then rinsed in water. The slides were mounted using aqueous mounting medium and a cover slip.

[6] = tested on: rat tissue from different organs, namely liver, lung, mesenteric lymph nodes, spleen and kidney; assay: Peptide binding to rat tissue from different organs
Description: as §2

[7] = tested on: intestinal epithelial tissue; assay: Cysteine binding studies: co-incubation with free L-cysteine; conditions: L-cysteine 100 mM to 0.003 mM; peptide 6.25-25 μg/ml
Description: FIG. 16A is a graph of the binding of SEQ ID NO:8 at a concentration of 25 μg/ml to intestinal epithelial tissue in the presence of varying concentrations of free L-cysteine as a function of absorbance at 650 nm.
Peptide SEQ ID NO:8, at a concentration of 6.25 μg/ml, 12.5 μg/ml and 25 μg/ml, was co-incubated with L-cysteine over the concentration range of 100 mM to 0.003 mM. Peptide SEQ ID NO:25, at a concentration of 6.25 μg/ml was co-incubated with L-cysteine over the concentration range of 100 mM to 0.003 mM.

M-cells = assay: Peptide coated fluorescent polystyrene particles in mouse intestinal loops, confocal microscopy; format: in vivo; conditions: fluorescent polystyrene particles (0.289 μm), 30 minutes incubation in loops
Description: Biotinylated SEQ ID NO:40 was adsorbed to the surface of fluorescent polystyrene particles (0.289 μm) using routine methodologies at room temperature. Mouse intestinal loops containing one or more polystyrene suspensions (typically 300 μl containing 5.0×10^10 particles per ml) were incubated for 30 minutes. The Peyer's patches were excised, fixed in methanol and the M cells were counter-stained with UEA1-rhodamine for subsequent analysis by confocal microscopy. Stained tissues were examined on a BioRad MRC 600 confocal laser-scanning microscope.

binder category / binding to epithelium (Caco-2 homogenates [2]) | Binding Assay results (Caco-2), Kd (Caco-2 homogenates [2]) | Substance | Binding Assay results (Caco-2), category (Caco-2 homogenates [2]) | further results
binding is still retained | (Kd˜9 μg/ml) | LETTAASLCYPS [SEQ ID NO:31] | Medium binder | binding of peptide coated particles (Caco-2 homogenates [1]): Binding was retained
binding to the epithelium is abrogated |  | LETTAASLAYPS (polypeptide ligand) [SEQ ID NO:33] | No binding | binding relative to that of the parent peptide (Caco-2 homogenates [1]; peptide adsorbed to polystyrene particles): approximately 60%; binding of peptide coated particles (Caco-2 homogenates [1]): Binding was retained
low to medium binder |  | NTRIPEPIRFYM (polypeptide ligand) [SEQ ID NO:14] |  | binding to human Peyer's patch [5]: negative for binding; differences in binding profiles to tissues of different organs [6]: No major differences; differences in binding profiles to tissue of different species [4]: No major differences
binding to the epithelium is abrogated |  | VPPHPMTYSAQY (polypeptide ligand) [SEQ ID NO:38] | No binding | 
 | (Kd˜30.53 μg/ml) | lettcaslcyps ([dL][dE][dT][dT][dC][dA][dS][dL][dC][dY][dP][dS]; cysteine pairing not given here) [SEQ ID NO:36] |  | 
 | (Kd˜8 μg/ml) | LETTCASLCYPS [8 biotinylated derivative] | Medium binder | 
 | (Kd˜13.91 μg/ml) | spyclsacttel ([dS][dP][dY][dC][dL][dS][dA][dC][dT][dT][dE][dL]; cysteine pairing not given here) [SEQ ID NO:35] | Medium binder | 
retained high binding | (Kd˜10 μg/ml) | yqcsytmphppv ([dY][dQ][dC][dS][dY][dT][dM][dP][dH][dP][dP][dV]) [SEQ ID NO:40] |  | binding of peptide coated particles (Caco-2 homogenates [1]): Binding was retained; binding and uptake of peptide coated particles (M-cells): binding and uptake into M-cells
medium binder |  | VCSNMYFSCRLS (polypeptide ligand) [SEQ ID NO:24] |  | peptide binding [3]: High binding; peptide binding (Caco-2 homogenates [2]): High binding
highest binder |  | VPPHPMTYSCQY (polypeptide ligand) [SEQ ID NO:25] |  | peptide binding [3]: High binding; staining localisation [5]: positive staining on the apical side of human enterocytes; binding to human Peyer's patch [5]: Positive binding; binding of peptide coated particles (Caco-2 homogenates [1]): Binding was retained; peptide binding (Caco-2 homogenates [2]): High binding; effect of free L-cysteine on peptide binding [7]: prevented binding

Continued, substance first:

Substance | binder category / binding to epithelium (Caco-2 homogenates [2]) | Binding Assay results (Caco-2), Kd (Caco-2 homogenates [2]) | Binding Assay results (Caco-2), category (Caco-2 homogenates [2]) | further results
DYDSLSWRSTLH (polypeptide ligand) [SEQ ID NO:3] |  |  |  | peptide binding [3]: High binding; peptide binding (Caco-2 homogenates [2]): High binding; differences in binding profiles to tissue of different species [4]: No major differences
LETTCASLCYPS [8 dansyl-lysine derivative] |  | (Kd˜1 μg/ml) | High binder | 
VPPHPMTYSCQY [25 biotinylated derivative] |  | (Kd < 5 μg/ml) | High binder | 
vpphpmtyscqy ([dV][dP][dP][dH][dP][dM][dT][dY][dS][dC][dQ][dY]) [SEQ ID NO:37] | retained high binding | (Kd˜10 μg/ml) |  | 
LETTCASLCYPS (polypeptide ligand) [SEQ ID NO:8] | medium binder |  | Medium binder | peptide binding [3]: High binding; staining localisation [5]: positive staining on the apical side of human enterocytes; binding to human Peyer's patch [5]: Positive binding; differences in binding profiles to tissues of different organs [6]: No major differences; effect of biotin tag at amino or carboxyl end on binding affinities (Caco-2 homogenates [2]): No differences; peptide binding (Caco-2 homogenates [2]): High binding; effect of free L-cysteine on peptide binding [7]: prevented binding; differences in binding profiles to tissue of different species [4]: No major differences
VPPHPMTYSCQY [25 Dansyl-lysine derivative] |  | (Kd < 1 μg/ml) |  | 
VPPHPMTYSSQY (polypeptide ligand) [SEQ ID NO:39] |  |  | No binding | 
LGTDWHSVSYTL (polypeptide ligand) [SEQ ID NO:9] |  |  |  | differences in binding profiles to tissue of different species [4]: No major differences
DYDSLSWRSTLHGGHESSH (polypeptide ligand) [SEQ ID NO:43] |  |  |  | effect of added Zinc-binding motif (HESSH) on binding (Caco-2 homogenates [2]; compared with SEQ ID NO:3): Enhanced binding
KPAYTHEYRWLA (polypeptide ligand) [SEQ ID NO:7] |  |  |  | differences in binding profiles to tissue of different species [4]: No major differences
LETTCASLAYPS [SEQ ID NO:32] | binding is still retained | (Kd˜8 μg/ml) | Medium binder | binding of peptide coated particles (Caco-2 homogenates [1]): Binding was retained
LETTSASLSYPS (polypeptide ligand) [SEQ ID NO:34] |  |  | No binding | 
